Peptide text beside a SMILES is read from it.
How the values were obtained:
[1] = test system: sirtuin 1 gene; test: mRNA expression of the long-lived gene sirtuin 1 by real-time quantitative PCR; format: cell-based; settings: mouse embryo fibroblasts
Excerpt: Total RNA was extracted from human skin fibroblasts and mouse embryo fibroblasts using TRIzol reagent (Invitrogen, USA), analyzed by RNA gel electrophoresis and subjected to RT-PCR for amplification of human skin fibroblasts sirtuin 1 and sirtuin 3 and mouse embryo fibroblasts sirtuin 1. GeneBan was used to identify well known sequences of sirtuins and GCG program was utilized to search for sequences with high similarity. A primer set was designed for polymerase chain reaction (PCR), followed by 1.2% agarose gel electrophoresis of a small portion of the reaction product to confirm the expected product has been amplified. Once confirmed, the remaining product was subjected to low-melting point agar gel electrophoresis, the product was excised from the gel and the specific size of DNA fragment was purified by gel extraction for cloning. The purified DNA fragment was ligated with the cloning vector pGEM-T-easy vector (pGEM-T-easy cloning kit, Promega, USA) before transformed into the competent cells. Finally, after small scale culture, cloning vector was extracted for sequencing, and the sequence data was compared using the BLAST program of NCBI. Part of the human skin fibroblast sirtuin 1 and sirtuin 3 and mouse embryo fibroblasts sirtuin 1 were correctly cloned by the abovementioned cloning procedures and the selected clones were transformed into competent cells again for extraction of plasmid with high purity for future experiments.
RNA is easily degraded in natural environment by RNase and thus all tools used must be autoclaved and dried in an oven prior to conducting experiments and wear gloves and masks during the procedures. Quickly add 800 μL TRIzol™ reagent to the culture dish of the experimental group and transfer the washed off cells to a sterile tube. Add chloroform to the tube in the volume of ⅕ of the total volume of TRIzol™ reagent and shake vigorously for 30 seconds. After incubation at room temperature for 15 minutes, centrifuge at 13200 rpm for 15 minutes at 4° C. and transfer the supernatant to a new 1.5 mL eppendorf. RNA is present in the aqueous phase of the supernatant. Transfer the supernatant to another clean 1.5 mL eppendorf and add Isopropanol in the volume of ½ of TRIzol™ reagent and high salt solution (1.2 M Sodium Chloride and 0.8 M Sodium citrate), mix well and incubate at −20° C. for 30 minutes, followed by centrifugation at 13200 rpm for 15 minutes at 4° C. to precipitate RNA; remove the supernatant carefully and add 800 μL of 100% absolute ethanol to wash and centrifuge at 13200 rpm for 10 minutes at 4° C. before washing with 100% ethanol. Carefully remove the supernatant and dry the RNA precipitate at 55° C. for 5 minutes. Dissolve the RNA precipitate in 15 μL DEPC water and incubate at 55° C. for 10 minutes and store at −80° C. freezer for future use.
Place 5 μg of total RNA in a 200 μL eppendorf and adjust the volume to 13 μL with DEPC water, add 1 μL of oligo(dT) 18, 10 mM dNTPs and incubate on ice. Add 4 μl of 5×AMV buffer and 1 μl of AMV (40 units/μL) and mix well. […]
The fluorescent dye SYBR green I can be embedded in the groove of double-stranded DNA and generate fluorescence when excited by a halogen light and its intensity can then be measured. When SYBR green I is not embedded in the groove of double-stranded DNA, its fluorescence background value is very low; and when it starts to integrate into the amplified target gene sequence, the fluorescence signal of SYBR green I will also be increased accordingly. […]

[2] = test system: collagen; test: Sircol soluble collagen assay; format: cell-based, mouse; settings: 24 hours
Procedure: Sircol™ soluble collagen assay kit was used for analysis the total concentration of collagen in the culture media and the general method is described as follows:
Place 0.1 ml of the test samples and the standards at different concentrations in separate 1.5 mL centrifuge tubes. Add 1 mL of dye reagent and vortex for 35 minutes, followed by centrifugation at 12000 rpm for 10 minutes and remove the supernatant. Carefully remove the residue water at the side of the tube to avoid contact with the precipitate. Add 1 mL of Alkali reagent to dissolve the precipitate and transfer 0.2 mL to a 96-well pate after the color has developed and measure absorbance at 570 nm using an ELISA reader.

[3] = test system: mouse embryo fibroblasts; test: anti-photoaging: cell survival after UV-A irradiation (MTT method); format: cell-based; settings: for cell survival rate after UV irradiation: 24 hours
Procedure: After incubation for 24 hours, cell survival rates were measured by the MTT method.

[4] = skin penetration of FITC-labeled dexamethasone in mice; format: in vivo; settings: 0.2, 0.5, 1 and 2% surfactin, 1 hour, back of mice, fluorescence intensity
Procedure: (§1) Before the experiment, the back of the mice was shaved. Mice aged 6-8 weeks were anesthetized by intraperitoneal injection using (Zoletil) and lay the animal flat before shaving the back with a electric razor and remove the remaining hair with hair removal cream. Place the animals in the cages with a warming light and provide water in each cage. Two groups are include in the experiment: for the control group, 100 μl of PBS (pH=7.4) was mixed with fluorescein isothiocyanate (FITC)-labeled HA or dexamethasone before added to 1 cm2 sterile cotton and affixed to the back of the mice; for the experimental group, FITC-labeled HA or dexamethasone was mixed with 0, 0.2, 0.5, 1, 2 and 5% surfactin for 1 hour.
(§2) At the end of 1 hour treatment, sacrificed the mice with CO2 asphyxiation, clean up the drug residue on the skin with ethanol and cut the skin on the back and embedded in Optimum cutting temperature compound (O.C.T) (SAKURA®, Japen) for cryosection (CM-2000, Leica, Germany).

[5] = skin absorption of FITC-labeled poly-γ-glutamic acid in mice; format: in vivo; settings: 1, 2, 5, 10, 15 and 20% surfactin, 1 hour, back of mice, fluorescence intensity
[6] = percutaneous penetration of gold nanoparticles in mice; format: in vivo; settings: 12.5 ppm surfactin, gold nanoparticles 2 nm, mice (BALB/c)
Excerpt: We applied the mix of gold nanoparticles and surfactin to the skin of mice for a certain period of time and collected the skin for cryosection. Because gold nanoparticles is self-luminous, optical microscope can be used to observe the content of fluorescence of gold nanoparticles in epidermis and dermis of the skin. The results indicated skin care paste obtained by conventional methods is not helpful for gold nanoparticle absorption by the skin due to its internal gel-mass like or gel-bundle like structure and thus gold nanoparticles were only found in the epidermis.

[7] = Razafindralambo et al.; cited from earlier work
[8] = foaming power, foam maximum density (MD); format: physicochemical; settings: buffer pH 7.4, more than 150 μg of surfactin, surfactin produced by Bacillus subtilis TH
Procedure: Measure the height of the foam and calculate the foam maximum density (MD).
Surfactants are […] and present invention examined the foaming property of crude surfactin. The method developed by Razafindralambo et. al was referenced and different concentrations of crude surfactin was dissolved in a buffer solution with a pH at 7.4, vortex for 2 minutes and followed by incubation for 1 hour. The height of the foam was then measured and the foaming power is expressed as foam maximum density (MD) which is obtained by dividing the […].

[9] = skin absorption of FITC-labeled hyaluronic acid in mice; format: in vivo; settings: 1 hour, back of mice
Procedure: as §1, §2

[10] = test system: mouse embryo fibroblasts; test: anti-oxidation: cell survival after hydrogen peroxide treatment (MTT method); format: cell-based
Procedure: Following subculture of the mouse embryo fibroblasts and incubation for 4 hours for attachment, hydrogen peroxide was used to treat the cells as the source of oxidation. The cells were treated with 100, 150, 200 and […] of hydrogen peroxide before addition of 25, 50, 75 and 100 μM of surfactin for another 24 hours. Cell survival rate was measured by the MTT method.

[11] = emulsifying power in diesel, emulsification index (E24); format: physicochemical
Procedure: After incubation at room temperature for 24 hours, emulsification index (E24) was measured.
The emulsifying power is one of the important indicator of surfactants, and present invention utilized the method published by Cooper et. al to measure the emulsification index of surfactants in diesel. Different concentrations of crude surfactin was dissolved in buffer solutions at pH 6.4, 7.4 and 8.4, and 2 ml of the dissolved mixture was added to a test tube containing 3 ml of diesel, vortex for 2 minutes and incubate at room temperature for 24 hours before measurement. The ration of height of the emulsifying phase and the total height of the solution multiplied by 100% will give the emulsification index of the test solution. The emulsifying power of oil products is represented as the emulsification index (E24), wherein the equation of E24 is shown as follows: E24(%)=(height of the emulsifying phase/total height of solution)×100%.

[12] = turbidity of diluted shampoo and corecervate formation; format: physicochemical
Procedure: (1) Adjust the relative concentration of the shampoo to 0.01-1.0
Relative concentration=shampoo liquid (g)/(shampoo liquid (g)+water (g))
(2) Measure the transmittance rate (%, temperature at 40° C.) of the […] solution (1) and the turbidity is represented as =100−transmittance rate (%)

[13] = test system: mouse embryo fibroblasts; test: cell proliferation of mouse embryo fibroblasts; format: cell-based; settings: 48 hours

CC(C)CCCCCCCCC[C@@H]1CC(=O)N[C@@H](CCC(=O)O)C(=O)N[C@@H](CC(C)C)C(=O)N[C@H](CC(C)C)C(=O)N[C@@H](C(C)C)C(=O)N[C@@H](CC(=O)O)C(=O)N[C@H](CC(C)C)C(=O)N[C@@H](CC(C)C)C(=O)O1 [surfactin] (HELM PEPTIDE1{E.L.[dL].V.D.[dL].L}|CHEM1{[CC(C)CCCCCCCCC[C@H](CC(=O)[*:1])O[*:2]]}$PEPTIDE1,CHEM1,1:R1-1:R1|PEPTIDE1,CHEM1,7:R2-1:R2$$$V2.0)
concentration with the best effect in enhancement of sirtuin 1 expression ([1]; 0-100 μM tested, 6-48 hours): 50 µM
expression of the sirtuin 1 gene ([1]; 6 hours, 50 μM and 75 μM surfactin): enhance expression of the sirtuin 1 gene
expression of the sirtuin 1 gene ([1]; 12 hours, 25 μM surfactin): enhancement of expression of the sirtuin 1 gene
expression of the sirtuin 1 gene ([1]; 36 hours, 50 μM and 100 μM surfactin): enhancement of expression of the sirtuin 1 gene
expression of the sirtuin 1 gene ([1]; 48 hours, 50 μM surfactin): enhancement of expression of the sirtuin 1 gene
collagen proliferation in mouse embryo fibroblasts ([2]; 25, 50, 75 and 100 μM, compared with PBS control): great effects in increasing collagen proliferation
concentration with the best result in increasing collagen [2]: 100 µM
cell survival rate after UV irradiation ([3]; UV 10 J/cm^2, 25, 50, 75, 100 and 125 μM surfactin): increase cell survival rate
concentration with the best protection after UV irradiation ([3]; UV 10 J/cm^2, 24 hours): 75 µM
cell survival rate after UV irradiation ([3]; UV 15 J/cm^2, 25, 50, 75, 100 and 125 μM surfactin): increase cell survival rate
concentration with the best protection after UV irradiation ([3]; UV 15 J/cm^2, 24 hours): 50 µM
skin penetration of dexamethasone [4]: can enhance skin penetration of dexamethasone
skin absorption of γ-GPA [5]: can all increase skin absorption of γ-GPA
percutaneous absorption of gold nanoparticles [6]: significantly enhance the percutaneous absorption of gold nanoparticles
MD value of surfactin [7]: ≥ 0.10
foam maximum density (MD), minimum [8]: 1.23
hyaluronic acid (HA) absorption by the skin ([9]; 0.2-5% surfactin, fluorescence intensity): can increase hyaluronic acid (HA) absorption by the skin
surfactin concentration with the best effect on enhancing skin absorption of HA [9]: 1%
protective effect against hydrogen peroxide ([10]; 25, 50 and 75 μM surfactin): good protective effect
survival rate of mouse embryo fibroblasts treated with hydrogen peroxide ([10]; hydrogen peroxide 100-250 μM, surfactin 24 hours, MTT): can increase the survival rate
pH of the best emulsifying power ([11]; pH 6.4, 7.4 and 8.4 tested, E24 after 24 hours): 7.4
concentration of the best emulsifying power ([11]; pH=7.4): 160 μg/m
turbidity of the shampoo ([12]; compared with sodium laureth sulfate, 40° C., relative concentration 0.01-1.0): can further reduce the turbidity of the shampoo
corecervate formation ([12]; shampoo during flushing / dilution): corecervate will occur at low concentrations
mouse embryo fibroblast proliferation ([13]; 0, 25, 50, 75 and 100 μM): can enhance mouse embryo fibroblast proliferation
concentration with the best effect in inducing cell proliferation ([13]; followed by 50 μM): 75 µM
cell proliferation compared with resveratrol and Palmitoyl pentapeptide-3 ([13]; resveratrol 0-30 μM, Palmitoyl pentapeptide-3 0-10 μM): better effect in inducing cell proliferation

palmitoyl pentapeptide-3 [reference compound]
collagen effect compared with surfactin [2]: not as good as surfactin
collagen content in the cells ([2]; Palmitoyl pentapeptide-3 3, 5, 8 and 10 μM): can also increase collagen content

From patent US9364413B2, “Method for anti-aging treatment by surfactin in cosmetics via enhancing sirtuin” (UMO International Co., Ltd., priority 2014, dated 2016)
